These results are taken from patent US5698563A, “Bis-[hydrazones]” (Alteon Inc., priority 1995, dated 1997).

Counter-ions that a name gives are not always drawn.

For orientation: IC50 means the concentration at which inhibition is half-maximal.

In the first data set the test system is cross-linking of glycated bovine serum albumin (AGE-BSA) to the rat tail tendon collagen. The data set is described as follows: Inhibition of cross-linking of glycated bovine serum albumin (AGE-BSA) to rat tail tendon collagen coated 96-well plate (ELISA). Format: biochemical. Particulars: 4 h, pH 7.4. How it is done: The following method was used to evaluate the ability of the compounds of the present invention to inhibit the cross-linking of glycated bovine serum albumin (AGE-BSA) to the rat tail tendon collagen coated 96-well plate.
The AGE-BSA was prepared by incubating BSA at a concentration of 200 mg per ml with 200 mM glucose in 0.4M sodium phosphate buffer, pH 7.4 at 37° C. for 12 weeks. The glycated BSA was then extensively dialyzed against phosphate buffer solution (PAS) for 48 hours with additional 5 times buffer exchanges. The rat tail tendon collagen coated plate was blocked first with 300 μl of superbloc blocking buffer (Pierce #37515X) for one hour. The blocking solution was removed from the wells by washing the plate twice with PAS-Tween 20 solution (0.05% Tween 20) using a NUNC-multiprobe or Dynatech ELISA-plate washer. Cross-linking of AGE-BSA (1 to 10 μg per well depending on the batch of AGE-BSA) to rat tail tendon collagen coated plate was performed with and without the testing compound dissolved in PAS buffer at pH 7.4 at the desired concentrations by the addition of 50 μl each of the AGE-BSA diluted in PAS or in the testing compound at 37° C. for 4 hours. The unbrowned BSA in PAS buffer with or without testing compound were added to the separate wells as the blanks. The un-cross-linked AGE-BSA was then removed by washing the wells three times with PAS-Tween buffer. The cross-linked AGE-BSA to the tail tendon coated plate was then quantitated by the polyclonal antibody raised against AGE-RNase. After a one-hour incubation period, AGE antibody was removed by washing 4 times with PAS-Tween.
The bound AGE antibody was then detected with the addition of horseradish peroxidase-conjugated secondary antibody, e.g., goat anti-rabbit immunoglobulin and incubation for 30 minutes. The substrate of 2,2-azino-di(3-ethylbenzthiazoline sulfonic acid) (ABTS chromogen) (Zymed #00-2011) was added. The reaction was allowed for an additional 15 minutes and the absorbance was read at 410 nm in a Dynatech plate reader.
The % inhibition of each test compound was calculated as follows.
% inhibition={[Optical density (without compound)-optical density (with
compound)]/optical density (without compound)]}100%
The IC50 relative inhibition by various test compounds at 10 Mm is as follows: […]
A general note: An ELISA detects its analyte on a solid surface through an enzyme-linked reagent.
Turning to `CC(C=NNC(=N)NCCCN(C)C)=NNC(=N)NCCCN(C)C` [methyl glyoxal bis[N-3-dimethylaminopropyl)hydrazinecarboximidamide hydrazone]tetrahydrobromide], the IC50 was 220 ± 50 µM.

In turn, `C(=NNC1=NCCN1)c1ccccc1C=NNC1=NCCN1` [o-phthalicdicarboxaldehyde bis(2-hydrazino-2-imidazoline hydrazone)dihydrobromide monohydrate] gave an IC50 of 430 ± 80 µM.

In the case of `OCCN1CCCN=C1NN=CC(=NNC1=NCCCN1CCO)c1ccccc1` [phenyl glyoxal bis[1-(2-hydroxyethyl)-2-hydrazino-1,4,5,6-tetrahydropyrimidine hydrazone]dimethanesulfonate dihydrate], the 50% inhibitory concentration (IC50) stood at 70 ± 100 µM.

Turning to `CC(C=NNc1nnc(C(C)C)n1N)=NNc1nnc(C(C)C)n1N` [methyl glyoxal-bis-(4-amino-3-hydrazino-5-isopropyl-1,2,4-triazole)hydrazone dihydrochloride], the concentration for half-maximal inhibition (IC50) amounted to 110 µM.

`CC(CC(C)=NNC1=NCCN1)=NNC1=NCCN1` [2,4-pentanedione bis(2-hydrazino-2-imidazoline hydrazone)dihydrobromide] returned a concentration for half-maximal inhibition (IC50) of 40 µM.

With `N=C(N)NN=CC(=NNC(=N)N)c1ccco1` [furyl glyoxal bis (guanyl hydrazone)dihydrochloride dihydrate], the IC50 is 310 µM.

Regarding `C1=CC(=NNC2=NCCN2)C=CC1=NNC1=NCCN1` [1,4-benzoquinone bis(2-hydrazino-2-imidazoline hydrazone) dihydrobromide], the IC50 was 20 µM.

`C(=NNC1=NCCN1)c1cc2ccccc2cc1C=NNC1=NCCN1` [2,3-naphthalene dialdehyde bis(2-hydrazino-2-imidazoline hydrazone)dihydrobromide dihydrate] came in with an IC50 of 30 µM.

On to `C1CCC(=NNC2=NCCN2)C(=NNC2=NCCN2)C1` [1,2-cyclohexanedione bis(2-hydrazino-2-imidazoline hydrazone)dihydrobromidedihydrate], for which half-maximal inhibition (IC50) required 10 µM.

On to `OCCN1CCN=C1NN=CC(=NNC1=NCCN1CCO)c1ccccc1` [phenyl glyoxal bis[1-(2-hydroxyethyl)-2-hydrazino-2-imidazoline hydrazone]dimethanesulfonate dihydrate], for which the IC50 was 90 ± 130 µM.

In the case of `CC(C=NNC(=N)NCC(C)(C)CN(C)C)=NNC(=N)NCC(C)(C)CN(C)C` [methyl glyoxal bis[N-(2,2-dimethyl-3-dimethylaminopropyl)hydrazinecarboximidamide hydrazone]tetrahydrobromide], the 50% inhibitory concentration (IC50) is 440 ± 60 µM.

`C1CNC(NN=C2CCC(=NNC3=NCCN3)CC2)=N1` [1,4-cyclohexane dione bis(2-hydrazino-2-imidazoline hydrazone]dihydrobromide dihydrate] came in with a half-inhibitory concentration (IC50) of 100 µM.

With `c1coc(C(=NNC2=NCCN2)C(=NNC2=NCCN2)c2ccco2)c1` [furyl bis (2-hydrazino-2-imidazoline hydrazone) dihydrobromide], the half-inhibitory concentration (IC50) was 20 µM.

On to `N=C(N)NN=CC(=NNC(=N)N)c1ccccc1` [phenyl glyoxal bis(guanylhydrazone)dihydrochloride], for which the IC50 turned out to be 340 ± 190 µM.

For `CC(C=NNC1=NCCCN1CCO)=NNC1=NCCCN1CCO` [methyl glyoxal bis[1-(2-hydroxyethyl)-2-hydrazino-1,4,5,6-tetrahydropyrimidine hydrazone]dimethanesulfonate], the IC50 amounted to 170 ± 110 µM.

The compound `OCCN1CCCN=C1NN=CC(=NNC1=NCCCN1CCO)c1ccco1` [furyl glyoxal bis[1-(2-hydroxyethyl)-2-hydrazino-1,4,5,6-tetrahydropyrimidine hydrazone]dimethanesulfonate dihydrate] yielded a concentration for half-maximal inhibition (IC50) of 20 µM.

In the case of `CC(C=NNC1=NCCN1CCO)=NNC1=NCCN1CCO` [methyl glyoxal bis[1-(2-hydroxyethyl)-2-hydrazino-2-imidazoline hydrazone]dimethanesulfonate], the midpoint of inhibition, the IC50, lay at 320 ± 70 µM.

`C(=NNC1=NCCN1)C(=NNC1=NCCN1)c1ccco1` [furyl glyoxal bis(2-hydrazino-2-imidazoline hydrazone) dihydrobromide dihydrate] returned an IC50 of 120 ± 100 µM.

In the case of `CC(=NNC1=NCCCN1)C(C)=NNC1=NCCCN1` [2,3-butanedione bis(2-tetrahydropyrimidine)hydrazone dihydrobromide], the IC50 is 4.1 µM.

Take `CC(C=NNC(=N)NCCN1CCOCC1)=NNC(=N)NCCN1CCOCC1` [methylglyoxal bis{N-[2-(4-morpholino)ethyl]hydrazinecarboximidamide hydrazone}tetrahydrobromide]: the IC50 came out at 2200 ± 130 µM.

As to `OCCN1CCN=C1NN=CC(=NNC1=NCCN1CCO)c1ccco1` [furyl glyoxal bis[1-(2-hydroxyethyl)-2-hydrazino-2-imidazoline hydrazone]dimethanesulfonate monohydrate], the IC50 came out at 920 ± 260 µM.

In the case of `CC(C=NNC1=NCCCN1)=NNC1=NCCCN1` [methyl glyoxal bis(2-hydrazino-1,4,5,6-tetrahydropyrimidine hydrazone)dihydrobromide], the half-maximal inhibitory concentration (IC50) was 840 ± 120 µM.

In turn, `CCc1nnc(NN=CC(C)=NNc2nnc(CC)n2N)n1N` [methyl glyoxal-bis-(4-amino-3-hydrazino-5-ethyl-1,2,4-triazole)hydrazone dihydrochloride] returned a concentration for half-maximal inhibition (IC50) of 120 µM.

Compound `C1CN=C(NN=C2CCCCC2=NNC2=NCCCN2)NC1` [1,2-cyclohexanedione bis(2-tetrahydropyrimidine)hydrazone dihydrobromide] yielded an IC50 of 6.7 µM.

`CC(C=NNC1=NCCN1)=NNC1=NCCN1` [methyl glyoxal bis(2-hydrazino-2-imidazoline hydrazone) dihydrobromide] had a 50% inhibitory concentration (IC50) of 2040 ± 50 µM.

The compound `CCCC(=NNC1=NCCCN1)C(C)=NNC1=NCCCN1` [2,3-hexanedione bis(2-tetrahydropyrimidine)hydrazone dihydrobromide] displayed an IC50 of 33 µM.

A further data set has as its system gelatin, i.e., collagen. Kind of data set: Surface browning experiment: gelatin/paper disks in glucose-6-phosphate. To be noted: Peridex at a final concentration of 0.04% chlorhexidine; 100 Mm glucose-6-phosphate, one week at 50° C., pH 7.4. The procedure:
To further study the ability of inhibitors of nonenzymatic browning to prevent the discoloration of protein on a surface, such as that which occurs on the tooth surface, the following surface browning experiment is performed. As a substitute for a pellicle-covered tooth surface, unexposed and developed photographic paper is used to provide a fixed protein (gelatin, i.e., collagen) surface on a paper backing. Five millimeter circles are punched and immersed for one week at 50° C. in a solution of 100 Mm glucose-6-phosphate in a 0.5M phosphate buffer, Ph 7.4, containing 3 Mm sodium azide. Glucose-6-phosphate is a sugar capable of participating in nonenzymatic browning at a more rapid rate than glucose. In addition to the glucose-6-phosphate, chlorhexidine and/or a compound of Formula I are included. After incubation, the gelatin/paper disks are rinsed with water, observed for brown color, and photographed.
`[H]/N=C(\N/C(=N/[H])NCCCCCCNC(=N)NC(=N)Nc1ccc(Cl)cc1)Nc1ccc(Cl)cc1` [chlorhexidine]: the “browning of gelatin disks with chlorhexidine” value is “significant browning”.

The test system of another data set is aortic wall protein cross-linking.
Assay: not given
To be noted: diabetic rats; cited from earlier work.
Consider `N=C(N)NN` [aminoguanidine], for which the “aortic wall protein cross-linking” value is “diminishes aortic wall protein cross-linking”.

In a further data set the test system is immunoglobulin trapping in the kidney.
Assay: not given
Particulars: Brownlee et al., Diabetes 1986; cited from earlier work.
Consider `N=C(N)NN` [aminoguanidine], for which the “immunoglobulin trapping in the kidney” value is on record as “reduction of immunoglobulin trapping in the kidney”.

The next data set relates to glomerular basement membrane.
Assay: not given
To be noted: streptozotocin-diabetic rat; Brownlee et al., 1988; cited from earlier work.
Consider `N=C(N)NN` [aminoguanidine], for which the “intervention in the development of diabetic nephropathy” value is “intervenes in the development of diabetic nephropathy”.

The subject of another data set is red blood cells.
Assay: not given
Particulars: in vivo, diabetic rabbits; 100 mg/kg by oral gavage; cited from earlier work.
Consider `N=C(N)NN` [aminoguanidine], for which the “diabetes-induced changes in the deformability of red blood cells” value is “has been shown to prevent it in vivo”.

In the next data set the test system is Maillard reaction.
Assay: not given
To be noted: Nordbo, J. Dent. Res., 1979; cited from earlier work.
As to `[H]/N=C(\N/C(=N/[H])NCCCCCCNC(=N)NC(=N)Nc1ccc(Cl)cc1)Nc1ccc(Cl)cc1` [chlorhexidine], the “catalysis of browning reactions in vitro” value is given as “catalyze browning reactions in vitro”.

Regarding benzalkonium chloride, the “catalysis of browning reactions in vitro” value is listed as “catalyze browning reactions in vitro”.

The same data set, now with this note: attributed to the Maillard reaction; cited from earlier work.
On to `[H]/N=C(\N/C(=N/[H])NCCCCCCNC(=N)NC(=N)Nc1ccc(Cl)cc1)Nc1ccc(Cl)cc1` [chlorhexidine], for which the “color formation in mixtures containing a sugar derivative and a source of amino groups” value is on record as “increased color formation”.

A further data set deals with dental pellicle.
Assay: not given
Particulars: use of chlorhexidine; cited from earlier work.
For the compound `[H]/N=C(\N/C(=N/[H])NCCCCCCNC(=N)NC(=N)Nc1ccc(Cl)cc1)Nc1ccc(Cl)cc1` [chlorhexidine], the dental pellicle entry is “increased dental pellicle”.

A further data set has as its system RNAase.
Assay: not given
To be noted: free lysine; Eble et al., 1983; cited from earlier work.
For `NCCCC[C@H](N)C(=O)O` [lysine], the “competition with lysine on RNAase for binding of glycosylated protein” value is “would compete with the lysine on RNAase for the binding of glycosylated protein”.
